Results reported in ChEMBL document CHEMBL1145647, “Phenylcyclobutyl triazoles as selective inhibitors of 11beta-hydroxysteroid dehydrogenase type I” (Bioorg Med Chem Lett, 2008).
pIC50: −log10 of the molar value.

Key:
[1] = molecular target: T1, 11-beta-hydroxysteroid dehydrogenase type 2 (Mus musculus, UniProt P51661); experiment: Inhibition of mouse 11-beta-HSD2 by SPA assay
T1 sequence (P51661 whole entry): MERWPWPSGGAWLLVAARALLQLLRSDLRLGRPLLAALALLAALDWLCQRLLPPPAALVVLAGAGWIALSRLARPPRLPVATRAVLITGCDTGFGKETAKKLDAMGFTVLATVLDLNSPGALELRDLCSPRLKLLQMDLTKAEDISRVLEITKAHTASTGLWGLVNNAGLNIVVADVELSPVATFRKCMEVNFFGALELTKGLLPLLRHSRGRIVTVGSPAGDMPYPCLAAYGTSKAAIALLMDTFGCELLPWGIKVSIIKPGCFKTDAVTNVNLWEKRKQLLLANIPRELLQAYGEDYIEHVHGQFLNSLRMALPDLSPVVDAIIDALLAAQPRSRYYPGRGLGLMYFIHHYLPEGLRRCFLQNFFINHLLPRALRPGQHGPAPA

[2] = molecular target: T2, 11-beta-hydroxysteroid dehydrogenase type 2 (Homo sapiens, UniProt P80365); experiment: Inhibition of human 11-beta-HSD2 by SPA assay
T2 sequence (P80365 whole entry): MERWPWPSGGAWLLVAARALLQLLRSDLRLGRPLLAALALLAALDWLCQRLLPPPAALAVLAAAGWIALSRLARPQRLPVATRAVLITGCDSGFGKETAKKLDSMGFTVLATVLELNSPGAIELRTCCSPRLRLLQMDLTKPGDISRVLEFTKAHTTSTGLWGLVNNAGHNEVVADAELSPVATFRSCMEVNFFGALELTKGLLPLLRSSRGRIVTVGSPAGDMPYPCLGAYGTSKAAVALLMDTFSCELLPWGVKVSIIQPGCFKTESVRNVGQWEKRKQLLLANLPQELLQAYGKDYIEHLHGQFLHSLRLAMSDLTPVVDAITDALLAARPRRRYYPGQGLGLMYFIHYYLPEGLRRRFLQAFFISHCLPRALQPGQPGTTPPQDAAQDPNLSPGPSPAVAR

[3] = molecular target: 11-beta-hydroxysteroid dehydrogenase 1 (Homo sapiens, UniProt P28845); experiment: Inhibition of human 11-beta-HSD1 by SPA assay
Chain of 11-beta-hydroxysteroid dehydrogenase 1 (Homo sapiens, UniProt P28845) (P28845 whole entry): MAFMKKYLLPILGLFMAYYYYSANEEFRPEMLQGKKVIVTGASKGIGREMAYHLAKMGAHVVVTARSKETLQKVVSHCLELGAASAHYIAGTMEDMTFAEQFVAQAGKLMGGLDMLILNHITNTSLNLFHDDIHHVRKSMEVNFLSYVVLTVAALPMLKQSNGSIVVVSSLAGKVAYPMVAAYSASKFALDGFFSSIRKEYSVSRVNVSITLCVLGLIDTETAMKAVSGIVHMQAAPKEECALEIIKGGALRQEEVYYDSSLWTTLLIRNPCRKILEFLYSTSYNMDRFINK

[4] = molecular target: 11-beta-hydroxysteroid dehydrogenase 1 (Mus musculus, UniProt P50172); experiment: Inhibition of mouse 11-beta-HSD1 by SPA assay
Chain of 11-beta-hydroxysteroid dehydrogenase 1 (Mus musculus, UniProt P50172) (P50172 whole entry): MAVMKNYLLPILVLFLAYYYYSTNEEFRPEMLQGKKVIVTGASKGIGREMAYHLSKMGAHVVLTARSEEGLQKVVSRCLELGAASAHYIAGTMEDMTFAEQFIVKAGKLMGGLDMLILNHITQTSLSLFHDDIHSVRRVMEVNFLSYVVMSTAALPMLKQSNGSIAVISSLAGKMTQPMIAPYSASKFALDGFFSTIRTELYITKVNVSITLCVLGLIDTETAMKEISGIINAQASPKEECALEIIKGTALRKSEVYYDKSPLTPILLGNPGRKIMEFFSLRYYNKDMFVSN

[5] = system: Mus musculus; experiment: Inhibition of 11-beta-HSD1 in mouse pharmacodynamic model assessed as inhibition of [3H]cortisone to [3H]cortisol at 10 mg/kg, po after 4 hrs; type: functional
[6] = system: Mus musculus; experiment: Inhibition of 11-beta-HSD1 in mouse pharmacodynamic model assessed as inhibition of [3H]cortisone to [3H]cortisol at 10 mg/kg, po after 1 hr; type: functional
[7] = Half life in C57B6 mouse at 10 mg/kg; type: ADME, organism-based; set-up: dose 10 mg/kg; settings: in vivo
[8] = Plasma concentration in C57B6 mouse at 10 mg/kg; type: ADME, organism-based; set-up: dose 10 mg/kg
[9] = Oral bioavailability in C57B6 mouse at 10 mg/kg; type: ADME, organism-based; settings: in vivo

| SMILES | pIC50 [1] | pIC50 [2] | pIC50 [3] | pIC50 [4] | half-life [7] | clearance [8] | bioavailability [9] | inhibition in vivo at 10 mg/kg [5] | inhibition in vivo at 10 mg/kg [6] |
| --- | --- | --- | --- | --- | --- | --- | --- | --- | --- |
| F[C@H]1C[C@@](c2ccc(Cl)cc2)(c2nnc(C3CC3)n2C2CC2)C1 | < 5.40 | < 5.40 | 7.66 | 7.42 | – | – | – | – | – |
| FC1(F)CC(c2ccc(Cl)cc2)(c2nnc(C3CC3)n2C2CC2)C1 | < 5.40 | < 5.40 | 7.46 | 6.97 | – | – | – | – | – |
| C1C2CC3CC1CC(c1nnc(C4CC4)n1C1CC1)(C2)C3 | – | – | – | – | – | – | – | 74% | – |
| Fc1ccccc1C1(c2nnc3n2CCCCCC3)CCCC1 | < 5.40 | 5.90 | 9.00 | 7.57 | – | – | – | 18% | 57% |
| Clc1ccc(C2(c3nnc4n3CCCCCC4)CCCCC2)cc1 | < 5.40 | – | 7.49 | 6.34 | – | – | – | – | – |
| Fc1ccc(C2(c3nnc4n3CCCCCC4)CCC2)cc1 | < 5.40 | < 5.40 | 8.52 | 7.43 | – | – | – | 55% | 68% |
| Fc1ccccc1C1(c2nnc3n2CCCCCC3)CCC1 | < 5.40 | > 5.40 | 9.00 | 7.80 | – | – | – | 53% | 90% |
| C1CCc2nnc(C34CC5CC(CC(C5)C3)C4)n2CC1 | < 5.00 | < 5.52 | 8.11 | 7.01 | – | – | – | 17% | 59% |
| C1CCCn2c(nnc2C23CC4CC(CC(C4)C2)C3)CC1 | – | – | – | – | – | – | – | 24% | – |
| Clc1ccc(C2(c3nnc4n3CCCCCC4)CCC2)cc1 | – | – | 9.00 | 7.85 | – | – | – | 77% | 91% |
| Clc1ccc(C2(c3nnc4n3CCCCCC4)CC2)cc1 | < 5.40 | < 5.40 | 8.70 | 6.64 | – | – | – | – | – |
| Cc1ccc(C2(c3nnc4n3CCCCCC4)CC2)cc1 | < 5.40 | < 5.40 | 9.00 | 6.48 | – | – | – | – | – |
| FC(F)(F)c1ccccc1C1(c2nnc3n2CCCCCC3)CCC1 | < 5.40 | < 5.40 | 8.30 | 6.45 | – | – | – | – | – |
| Fc1ccc(C2(c3nnc4n3CCCCCC4)CCCCC2)cc1 | < 5.40 | 5.93 | 7.57 | 6.31 | – | – | – | – | – |
| c1ccc(C2(c3nnc4n3CCCCCC4)CCC2)cc1 | < 5.40 | 5.40 | 9.00 | 8.10 | – | – | – | 72% | 88% |
| c1ccc(C2(c3nnc4n3CCCCCC4)CC2)cc1 | < 5.40 | < 5.40 | 8.10 | 6.76 | – | – | – | 45% | 63% |
| FC(F)(F)c1ccc(C2(c3nnc4n3CCCCCC4)CCC2)cc1 | < 5.40 | < 5.40 | 8.70 | 6.94 | – | – | – | – | – |
| Clc1ccc(C2(c3nnc4n3CCCCCC4)CC2)c(Cl)c1 | < 5.40 | 5.71 | 8.70 | 6.70 | – | – | – | – | – |
| F[C@H]1C[C@](c2ccc(Cl)cc2)(c2nnc(C3CC3)n2C2CC2)C1 | < 5.40 | < 5.40 | 8.30 | 7.80 | 1.5 h | 10.7 mL/min/kg | 100% | 91% | 92% |
| Cc1ccccc1C1(c2nnc3n2CCCCCC3)CCC1 | < 5.40 | 5.48 | 9.00 | 7.11 | – | – | – | 21% | 23% |

Now from value to molecule, other results behind:

| pIC50 [1] | pIC50 [2] | pIC50 [3] | pIC50 [4] | half-life [7] | clearance [8] | bioavailability [9] | SMILES | inhibition in vivo at 10 mg/kg [5] | inhibition in vivo at 10 mg/kg [6] |
| --- | --- | --- | --- | --- | --- | --- | --- | --- | --- |
| < 5.40 | 5.40 | 8.70 | 7.72 | – | – | – | Fc1cccc(C2(c3nnc4n3CCCCCC4)CCC2)c1 | 68% | 87% |
| < 5.40 | 5.71 | 8.00 | 7.24 | – | – | – | Cc1cccc(C2(c3nnc4n3CCCCCC4)CCCC2)c1 | 22% | 20% |
| – | – | 8.70 | 7.39 | – | – | – | Clc1ccc(C2(c3nnc4n3CCCCCC4)CCCC2)cc1 | – | – |
| < 5.40 | – | 7.82 | 6.43 | – | – | – | Cc1ccc(C2(c3nnc4n3CCCCCC4)CCCCC2)cc1 | – | – |
| < 5.40 | – | 8.70 | 7.60 | – | – | – | Cc1ccc(C2(c3nnc4n3CCCCCC4)CCCC2)cc1 | 3% | 35% |
| < 5.40 | 5.98 | 7.89 | 7.00 | – | – | – | c1ccc(C2(c3nnc4n3CCCCCC4)CCCCC2)cc1 | 0% | 25% |
| < 5.40 | < 5.40 | 8.70 | 7.28 | – | – | – | Cc1cccc(C2(c3nnc4n3CCCCCC4)CCC2)c1 | 22% | 17% |
| < 5.40 | < 5.40 | 7.37 | 7.21 | – | – | – | Oc1cccc(C2(c3nnc4n3CCCCCC4)CCCC2)c1 | 21% | 3% |
| < 5.40 | 5.99 | 8.70 | 7.92 | – | – | – | c1ccc(C2(c3nnc4n3CCCCCC4)CCCC2)cc1 | 37% | 73% |
| < 5.40 | < 5.40 | 8.10 | 7.74 | – | – | – | Fc1ccc(C2(c3nnc4n3CCCCCC4)CCCC2)cc1 | 30% | 58% |
| < 5.40 | 5.70 | 8.70 | 7.72 | – | – | – | Cc1ccc(C2(c3nnc4n3CCCCCC4)CCC2)cc1 | 28% | 48% |
